# Test results reported in patent US20230330134A1, “METHOD OF PROPHYLAXIS OF CORONAVIRUS AND/OR RESPIRATORY SYNCYTIAL VIRUS INFECTION” (Starpharma Pty Ltd., priority 2020, published 2023).
# Several values for one entry are separate records, joined by “and”; a condition that tells them apart may be missing. Equal values may be shown once. Read-outs that look alike come from different tables or passages of the source.
# Key:
# SARS-CoV-2 = type: cell-based; details: 25 mg/mL incubated with 10^5 TCID50/mL virus, 37° C., 60 minutes; titrated on Vero cells
# [1] = system: SARS-CoV-2 hCoV-19/Australia/VIC01/2020; test: microbe, parasite or virus in culture; type: cell-based
# [2] = Hygroscopic assessment (European Pharmacopoeia 5.11); type: physicochemical
# Method: A hygroscopic assessment was performed as described in European Pharmacopoeia 5.11. Results from the assay are interpreted as follows: deliquescent -sufficient water is absorbed to form a liquid; very hygroscopic - increase in mass is equal to or greater than 15%; hygroscopic - increase in mass is less than 15% and equal to or greater than 2%; slightly hygroscopic - increase in mass is less than 2% and equal to or greater than 0.2% and not hygroscopic - if increase in mass is less than 0.2%, then the compound is not hygroscopic.
# [3] = system: SARS-CoV-2 (hCoV-19/Australia/VIC01/2020); type: cell-based; details: 0.345 mg/mL added 0 min to 6 h post-infection; Vero E6; MOI 1; all time points
# [4] = system: SARS-CoV-2 (2019-nCoV/USA-WA1/2020); test: Virucidal evaluation with neutralization through sucrose cushion, plaque assay; type: cell-based; details: for Reduction vs. Virus Control (%) / Reduction vs. Virus Control (Log10± SD): 10 mg/mL
# [5] = system: SARS-CoV-1 (Urbani) Spike-pseudotyped GFP reporter lentiviral particles; type: cell-based
# MRC-5 cells = details: no virus
# Hep-2 cells = test: Product cytotoxicity (TC50), CCK-8 assay; type: cell-based
# [6] = 10^4 pfu/mL, 5 sec incubation, 96 hours post-infection, Vero E6
# [7] = 10^4 pfu/mL, 10 sec incubation, 96 hours post-infection, Vero E6
# [8] = 10^4 pfu/mL, 30 sec incubation, 16 hours post-infection, Vero E6
# [9] = 10^4 pfu/mL, 30 sec incubation, 96 hours post-infection, Vero E6
# [10] = 10^4 pfu/mL, 1 min incubation, 16 hours post-infection, Vero E6
# [11] = 10^4 pfu/mL, 1 min incubation, 96 hours post-infection, Vero E6
# [12] = 10^4 pfu/mL, 5 min incubation, 16 hours post-infection, Vero E6
# [13] = 10^4 pfu/mL, 10 min incubation, 96 hours post-infection, Vero E6
# [14] = 10^4 pfu/mL, 15 min incubation, 16 hours post-infection, Vero E6
# [15] = 10^4 pfu/mL, 15 min incubation, 96 hours post-infection, Vero E6
# [16] = 10^5 pfu/mL, 5 sec incubation, 96 hours post-infection, Vero E6
# [17] = 10^5 pfu/mL, 10 sec incubation, 96 hours post-infection, Vero E6
# [18] = 10^5 pfu/mL, 30 sec incubation, 16 hours post-infection, Vero E6
# [19] = 10^5 pfu/mL, 30 sec incubation, 96 hours post-infection, Vero E6
# [20] = 10^5 pfu/mL, 1 min incubation, 16 hours post-infection, Vero E6
# [21] = 10^5 pfu/mL, 1 min incubation, 96 hours post-infection, Vero E6
# [22] = 10^5 pfu/mL, 5 min incubation, 16 hours post-infection, Vero E6
# [23] = 10^5 pfu/mL, 10 min incubation, 96 hours post-infection, Vero E6
# [24] = 10^5 pfu/mL, 15 min incubation, 16 hours post-infection, Vero E6
# [25] = 10^5 pfu/mL, 15 min incubation, 96 hours post-infection, Vero E6
# [26] = 10^6 pfu/mL, 5 sec incubation, 96 hours post-infection, Vero E6
# [27] = 10^6 pfu/mL, 10 sec incubation, 96 hours post-infection, Vero E6
# [28] = 10^6 pfu/mL, 30 sec incubation, 96 hours post-infection, Vero E6
# [29] = 10^6 pfu/mL, 1 min incubation, 96 hours post-infection, Vero E6
# [30] = 10^6 pfu/mL, 10 min incubation, 96 hours post-infection, Vero E6
# [31] = 10^6 pfu/mL, 15 min incubation, 96 hours post-infection, Vero E6
substance,measurement,setting,value
astodrimer sodium [SPL7013],viricidal activity,SARS-CoV-2,stopped all virus growth
same,EC50,"[1]; added 1 hour post-infection, Vero cells, MOI 0.05, CPE by MTT after 4 days",0.40 mg/mL
same,EC50,"[1]; added 1 hour pre-infection, Vero cells, MOI 0.05, CPE by MTT after 4 days",0.42 mg/mL
same,EC50,"[1]; pre- and post-infection assays, read-out: EC50",25 µM and 24 µM
same,hygroscopicity class,[2],very hygroscopic (increase in mass is equal to or greater than 15%)
same,increase in mass,[2],21.97%
same,infectious virus titer in supernatant (TCID50) at 8 hours post-infection,[3],below the lower limit of detection
same,Reduction vs. Virus Control (%),[4]; [6],-35.936%
same,Reduction vs. Virus Control (Log10± SD),[4]; [6],-0.13 ± 0.21 Log10
same,Reduction vs. Virus Control (%),[4]; [7],14.230%
same,Reduction vs. Virus Control (Log10± SD),[4]; [7],0.07 ± 0.29 Log10
same,Reduction vs. Virus Control (%),[4]; [8],36.904%
same,Reduction vs. Virus Control (Log10± SD),[4]; [8],0.20 ± 0.20 Log10
same,Reduction vs. Virus Control (%),[4]; [9],20.567%
same,Reduction vs. Virus Control (Log10± SD),[4]; [9],0.10 ± 0.10 Log10
same,Reduction vs. Virus Control (%),[4]; [10],99.932%
same,Reduction vs. Virus Control (Log10± SD),[4]; [10],3.17 ± 0.12 Log10
same,Reduction vs. Virus Control (%),[4]; [11],20.567%
same,Reduction vs. Virus Control (Log10± SD),[4]; [11],0.10 ± 0.00 Log10
same,Reduction vs. Virus Control (%),[4]; [12],99.979%
same,Reduction vs. Virus Control (Log10± SD),[4]; [12],3.67 ± 0.21 Log10
same,Reduction vs. Virus Control (%),[4]; [13],>99.999%
same,Reduction vs. Virus Control (Log10± SD),[4]; [13],5.07 ± 0.25 Log10
same,Reduction vs. Virus Control (%),[4]; [14],99.990%
same,Reduction vs. Virus Control (Log10± SD),[4]; [14],4.00 ± 0.10 Log10
same,Reduction vs. Virus Control (%),[4]; [15],>99.999%
same,Reduction vs. Virus Control (Log10± SD),[4]; [15],5.83 ± 0.12 Log10
same,Reduction vs. Virus Control (%),[4]; [16],53.584%
same,Reduction vs. Virus Control (Log10± SD),[4]; [16],0.33 ± 0.21 Log10
same,Reduction vs. Virus Control (%),[4]; [17],41.566%
same,Reduction vs. Virus Control (Log10± SD),[4]; [17],0.23 ± 0.06 Log10
same,Reduction vs. Virus Control (%),[4]; [18],0.000%
same,Reduction vs. Virus Control (Log10± SD),[4]; [18],0.00 ± 0.36 Log10
same,Reduction vs. Virus Control (%),[4]; [19],49.881%
same,Reduction vs. Virus Control (Log10± SD),[4]; [19],0.30 ± 0.17 Log10
same,Reduction vs. Virus Control (%),[4]; [20],99.767%
same,Reduction vs. Virus Control (Log10± SD),[4]; [20],2.63 ± 0.15 Log10
same,Reduction vs. Virus Control (%),[4]; [21],65.855%
same,Reduction vs. Virus Control (Log10± SD),[4]; [21],0.47 ±0.21 Log10
same,Reduction vs. Virus Control (%),[4]; [22],99.998%
same,Reduction vs. Virus Control (Log10± SD),[4]; [22],4.63 ± 0.31 Log10
same,Reduction vs. Virus Control (%),[4]; [23],99.980%
same,Reduction vs. Virus Control (Log10± SD),[4]; [23],3.70 ± 0.26 Log10
same,Reduction vs. Virus Control (%),[4]; [24],99.998%
same,Reduction vs. Virus Control (Log10± SD),[4]; [24],4.60 ± 0.10 Log10
same,Reduction vs. Virus Control (%),[4]; [25],99.998%
same,Reduction vs. Virus Control (Log10± SD),[4]; [25],4.60 ± 0.10 Log10
same,Reduction vs. Virus Control (%),[4]; [26],20.567%
same,Reduction vs. Virus Control (Log10± SD),[4]; [26],0.10 ± 0.20 Log10
same,Reduction vs. Virus Control (%),[4]; [27],7.388%
same,Reduction vs. Virus Control (Log10± SD),[4]; [27],0.03 ± 0.06 Log10
same,Reduction vs. Virus Control (%),[4]; [28],20.567%
same,Reduction vs. Virus Control (Log10± SD),[4]; [28],0.10 ± 0.10 Log10
same,Reduction vs. Virus Control (%),[4]; [29],53.584%
same,Reduction vs. Virus Control (Log10± SD),[4]; [29],0.33 ± 0.12 Log10
same,Reduction vs. Virus Control (%),[4]; [30],99.369%
same,Reduction vs. Virus Control (Log10± SD),[4]; [30],2.20 ± 0.10 Log10
same,Reduction vs. Virus Control (%),[4]; [31],99.979%
same,Reduction vs. Virus Control (Log10± SD),[4]; [31],3.67 ± 0.23 Log10
same,reduction in virus infectivity,"[4]; 1 to 30 mg/mL, inoculums 10^4, 10^5 and 10^6 pfu/mL, 10 to 15 minutes exposure",> 99.9%
same,reduction in virus infectivity,"[4]; 10^4 pfu/mL viral inoculum, 10 to 30 mg/mL, 10 to 15 min incubation",> 99.999%
same,SARS-CoV-2 inactivated,"[4]; >10 mg/mL, 10^4 pfu/mL, within as little as 1 minute of exposure, 16 hours post-infection",> 99.9%
same,reduced infectivity,"[4]; Vero E6, 10^6 pfu/mL, incubation 15 to 30 minutes, 10 to 30 mg/mL",> 99.999%
same,reduction of infectivity,[4]; after 1 minute of exposure to the virus,> 99.9%
same,virucidal effect,[4]; exposure to virus for 30 seconds,no detectable virucidal effect
same,"binding/infection of Vero E6 cells by spike-pseudotyped lentivirus (GFP-positive cells, FACS)",[5],potently inhibited
same,"TCID50 (log10), CTC (Cytotoxicity Control)",MRC-5 cells,1.50 log10
same,"CPE in four replicates, CTC (Cytotoxicity Control)",MRC-5 cells; dilution (-Log10) -2,0000
same,"CPE in four replicates, CTC (Cytotoxicity Control)",MRC-5 cells; dilution (-Log10) -3,0000
same,"CPE in four replicates, CTC (Cytotoxicity Control)",MRC-5 cells; dilution (-Log10) -4,0000
same,"TC50, Best Fit Value",Hep-2 cells; Post Treatment,30.90 mg/mL
same,"TC50, Best Fit Value",Hep-2 cells; PreTreatment,35.64 mg/mL
